From ChEMBL document CHEMBL4699599, “Discovery of a Beetroot Protease Inhibitor to Identify and Classify Plant-Derived Cystine Knot Peptides” (J Nat Prod, 2020)
Positions of bridges follow the written chain, without caps; N, C: chain ends. Residues, ends and D or L forms follow the SMILES beside them.

Molecular target: T1, Serine protease 1 (Bos taurus) (UniProt P00760)
T1 sequence (whole entry): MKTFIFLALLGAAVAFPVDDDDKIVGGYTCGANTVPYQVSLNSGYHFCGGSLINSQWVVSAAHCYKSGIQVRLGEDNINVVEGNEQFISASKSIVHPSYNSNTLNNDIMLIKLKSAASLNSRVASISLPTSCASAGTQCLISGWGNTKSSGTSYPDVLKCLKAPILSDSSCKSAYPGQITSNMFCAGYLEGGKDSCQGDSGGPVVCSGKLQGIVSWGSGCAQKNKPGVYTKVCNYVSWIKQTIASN
Experiment: Inhibition of bovine beta-trypsin using BAPNA as substrate assessed as […]

| Compound | Activity |
| --- | --- |
| CC[C@H](C)[C@@H]1NC(=O)[C@H](CCCNC(=N)N)NC(=O)[C@H](CC(C)C)NC(=O)[C@H](CCCNC(=N)N)NC(=O)[C@@H]2CCCN2C(=O)[C@@H]2CCCN2C(=O)[C@H](Cc2cnc[nH]2)NC(=O)[C@@H]2CCCN2C(=O)[C@H](C(C)C)NC(=O)[C@@H]2CSSC[C@@H]3NC(=O)[C@H]([C@@H](C)CC)NC(=O)[C@H](CCC(N)=O)NC(=O)[C@H](CC(=O)O)NC(=O)[C@H]([C@@H](C)O)NC(=O)[C@H](CCCCN)NC(=O)[C@H](C)NC(=O)[C@@H](NC(=O)[C@H](CCC(=O)O)NC(=O)[C@H](CCC(=O)O)NC(=O)[C@H](CC(=O)O)NC(=O)[C@@H](N)CCC(=O)O)CSSC[C@H](NC(=O)[C@H](CSSC[C@@H](C(=O)N[C@@H](C)C(=O)O)NC(=O)[C@H](C(C)C)NC(=O)[C@H](Cc4ccccc4)NC1=O)NC(=O)[C@H](Cc1ccc(O)cc1)NC(=O)[C@H](CC(N)=O)NC(=O)[C@@H]1CCCN1C(=O)[C@H](C)NC(=O)[C@H](CC(N)=O)NC(=O)[C@@H]1CCCN1C(=O)[C@@H]1CCCN1C3=O)C(=O)N[C@@H](CO)C(=O)NCC(=O)N[C@@H](CO)C(=O)N2 (H-EDEECAKTDQICPPNAPNYCCSGSCVPHPPRLRIFVCA-OH; disulfide 5-21, 12-25, 20-37) | 536 nM |
| CC[C@H](C)[C@@H]1NC(=O)[C@H](C)NC(=O)CNC(=O)[C@H](CO)NC(=O)[C@@H]2CCCN2C(=O)[C@H](CO)NC(=O)[C@@H](NC(=O)[C@@H](N)CCCCN)CSSC[C@@H]2NC(=O)[C@@H]3CSSC[C@@H](C(=O)N[C@@H](CCC(N)=O)C(=O)O)NC(=O)[C@H](C(C)C)NC(=O)[C@H](Cc4ccccc4)NC(=O)[C@H]([C@@H](C)CC)NC(=O)[C@H](CCCNC(=N)N)NC(=O)[C@H](CC(C)C)NC(=O)[C@H]([C@@H](C)CC)NC(=O)[C@@H]4CCCN4C(=O)[C@H](Cc4cnc[nH]4)NC(=O)[C@@H]4CCCN4C(=O)[C@H](C(C)C)NC(=O)[C@H](CSSC[C@H](NC1=O)C(=O)N[C@@H](CO)C(=O)NCC(=O)N[C@@H](Cc1ccccc1)C(=O)NCC(=O)N1CCC[C@H]1C(=O)N1CCC[C@H]1C(=O)N[C@@H](CCC(=O)O)C(=O)N[C@@H](CCC(N)=O)C(=O)N3)NC(=O)[C@H](C)NC(=O)CNC(=O)[C@H](CO)NC2=O (H-KCSPSGAICSGFGPPEQCCSGACVPHPILRIFVCQ-OH; disulfide 2-19, 9-23, 18-34) | 185 nM |
